Results taken from patent publication US20120083518A1, “Cancer Treatment Targeting BRCA1-IRIS” (priority 2010, published 2012).

Key:
Assay type in all cases: cell-based, human
[1] = tested on: p53 phosphorylation in induced IRIS3 cells; assay: Immunoblot of p53 phosphorylation (p-p53/p53, ImageJ)
Protocol: (§1) IRIS 1 and IRIS3 induced for 72 h were exposed to 0, 10, 20 or 40 mJ/cm^2 of UVC irradiation. After 24 h, compared with IRIS1, induced IRIS3 cells treated with 0 mJ/cm^2 UVC had higher levels of BRCA1-IRIS, p53, WIP1, p-p38MAPK, yet similar levels of p38MAPK and p-p53 (FIG. 9F). In 10 and 20 mJ/cm^2 treated cells, BRCA1-IRIS, p53 and WIP1 levels remained higher in induced IRIS3 and no change in p38MAPK level (FIG. 9F). […] Finally, in 40 mJ/cm^2 UVC-treated cells, BRCA1-IRIS, p53 and WIP1 levels were still detectable in induced IRIS3 but not in IRIS1 cells (FIG. 9F). In contrast, IRIS1 and not induced IRIS3 cells contained detectable levels of p-p53 and p-p38MAPK (FIG. 9F). The intensity of the p53, p-p53, p38MAPK and p-p38MAPK bands in FIG. 9F were measured using ImageJ program (NIH) to estimate the level of p53 and p38MAPK activation in BRCA1-IRIS overexpressing cells. About 50% of p53 in IRIS1 cells was phosphorylated before UVC exposure that rose to 80-100% after the exposure (FIG. 9G). In contrast, only 20% of p53 was phosphorylated in induced IRIS3 cells before UVC dropping to <10% after UVC (FIG. 9G). p38MAPK phosphorylation was undetectable in IRIS1 cells before UVC exposure but rose to ˜100% after UVC (FIG. 9G). In induced IRIS3 cells, the 100% of p38MAPK phosphorylated before UVC exposure dropped to <20% after UVC exposure (FIG. 9G). […]

[2] = tested on: p38MAPK phosphorylation in HME cells; assay: Immunoblot of p38MAPK phosphorylation; settings: 10 μM CCT007093
Protocol: (§2) CCT007093 is a novel WIP1 specific inhibitor. The HME and induced IRIS3 (72 h) cells were untreated or exposed to 20 mJ/cm^2 UVC, 10 μM of CCT007093 or both. BRCA1-IRIS, p53 and WIP1 level was low in HME and high in IRIS3 cells, whereas p38MAPK was high in both the cell lines. These levels were not changed in both cell lines following any of the treatments (FIG. 9H). p-p53 level was low in untreated HME and IRIS3 cells (FIG. 9H, lanes 1 and 5), rose after UVC treatment, decreased after CCT007093 treatment and increased in UVC+CCT007093-treated HME cells (FIG. 9H) Importantly, in induced IRIS3 cells, p-p53 level decreased after UVC treatment, increased after CCT007093 treatment and remained high after the combined treatment (FIG. 9H).
(§3) BT474, MCF7 and SKBR3 cells were maintained in Roswell Park Memorial Institute medium (Invitrogen) supplemented with 10% fetal bovine serum and antibiotics. SOAS2 and HEK293T cells were maintained Dulbecco's Modified Eagle medium (Invitrogen) with 10% serum. HME maintenance was as described in ElShamy and Livingston, 2004. Cancer or HME cells were at 80% confluence in 10 cm^2 dishes and were treated with UVC (different doses), SB203580 (10 μM, Sigma, St. Louis, Mo., USA), etoposide (10 μM, Sigma) and H2O2 (15 μM, Sigma) or CCT007093 (10 μM, Santa Cruz, Santa Cruz, Calif., USA), and these drugs were added directly to the cells.

induced IRIS3 cells = assay: TUNEL detection (FragEL DNA fragmentation kit)
Protocol: (§4) HME and induced IRIS3 (72 h) cells were exposed to 40 mJ/cm^2 UVC, 10 μM of etoposide or 15 μM of H2O2 in the presence or absence of 10 μM of SB203580, p53 siRNA or 10 μM of CCT007093.
(§5) The Flurescein FragEL DNA Fragmentation Detection Kit was used according to the supplier (Calbiochem) protocol.

HME cells = assay: TUNEL detection (FragEL DNA fragmentation kit)
Protocol: as §4, §5

[3] = tested on: p53 phosphorylation in HME cells; assay: Immunoblot of p53 phosphorylation; settings: 10 μM CCT007093 alone
Protocol: as §2, §3

[4] = tested on: p38MAPK phosphorylation in induced IRIS3 cells; assay: Immunoblot of p38MAPK phosphorylation (p-p38MAPK/p38MAPK, ImageJ)
Protocol: as §1

SKBR3 cells = assay: LIVE/DEAD cell death assay; settings: for level of cell death: SKBR3, all conditions, 10 μM etoposide or 15 μM H2O2
Protocol: (§6) MCF7 and SKBR3 cell lines transfected with luciferase or BRCA1-IRIS siRNAs in the presence or absence of p38MAPK inhibitor (SB203580) or p53 siRNA were exposed to 40 mJ/cm^2 UVC, 10 μM etoposide or 15 μM H2O2. […] This was confirmed by phase-contrast cell counting (FIG. 9I) and trypan blue exclusion using ViCell (Beckman Coulter, Fullerton, Calif., USA, FIG. 9J).
(§7) The LIVE/DEAD Fixable Dead Cell Stain Kit was used according to the supplier (Invitrogen) protocol.

MCF7 cells = assay: LIVE/DEAD cell death assay; settings: for level of cell death: MCF7, all conditions, 10 μM etoposide or 15 μM H2O2
Protocol: as §6, §7

[5] = tested on: p53 and p38MAPK phosphorylation in induced IRIS2 cells; assay: Immunoblot of p-p53 and p-p38MAPK after etoposide
Protocol: (§8) Induced IRIS2 on the other hand maintained high level of BRCA1-IRIS, p53 and WIP1 even in the presence of 50 μM of etoposide and had similar level of total p38MAPK (FIG. 8I). Etoposide treatment triggered p53 phosphorylation in IRIS1 but not in the induced IRIS2 cells (Supplementary FIG. 8I).

[6] = tested on: p53 and p38MAPK phosphorylation in IRIS1 cells; assay: Immunoblot of p-p53 and p-p38MAPK after etoposide
Protocol: as §8

[7] = induced IRIS3, 20 mJ/cm^2 UVC in presence of 10 μM CCT007093
[8] = induced IRIS3, 10 μM etoposide or 15 μM H2O2
[9] = HME, 10 μM etoposide or 15 μM H2O2

O=C1/C(=C/c2cccs2)CC/C1=C\c1cccs1 [CCT007093]
p-p53 level ([1]; induced IRIS3, 10 μM CCT007093 alone): increased
p53 phosphorylated (p-p53/p53 ratio) [1, 7]: ~75%
p-p38MAPK level [2]: increased
number of TUNEL+ cells (induced IRIS3 cells; induced IRIS3, 10 μM CCT007093, no stress treatment): not
number of TUNEL+ cells (induced IRIS3 cells; induced IRIS3 under UVC, etoposide or H2O2, 10 μM CCT007093 vs vehicle): significantly increased
number of TUNEL+ cells (HME cells; HME under UVC, etoposide or H2O2, 10 μM CCT007093 vs vehicle): not
number of TUNEL+ cells (HME cells; HME, 10 μM CCT007093, no stress treatment): increased slightly yet significantly
p-p53 level [3]: decreased
p-p38MAPK level ([4]; induced IRIS3, 10 μM CCT007093 alone or with UVC): remained high
p38MAPK phosphorylated (p-p38MAPK/p38MAPK ratio) [4, 7]: ~55%

OO [H2O2]
level of cell death (SKBR3 cells): increased
level of cell death (MCF7 cells): increased
number of TUNEL+ cells (induced IRIS3 cells; [8]): only modestly increasing
number of TUNEL+ cells (HME cells; [9]): markedly increased

C[S+]([O-])c1ccc(-c2nc(-c3ccncc3)c(-c3ccc(F)cc3)[nH]2)cc1 (centres unmarked) [SB203580]
dead cells induced by BRCA1-IRIS silencing (SKBR3 cells; SKBR3, BRCA1-IRIS silenced plus SB203580 or p53 siRNA): significantly reduced
dead cells induced by BRCA1-IRIS silencing (MCF7 cells; MCF7, BRCA1-IRIS silenced plus SB203580 or p53 siRNA): significantly reduced
number of TUNEL+ cells (induced IRIS3 cells; induced IRIS3 under UVC, etoposide or H2O2, plus 10 μM SB203580 or p53 siRNA): stayed the same
number of TUNEL+ cells (HME cells; HME under UVC, etoposide or H2O2, plus 10 μM SB203580 or p53 siRNA): significantly reduced

COc1cc([C@@H]2c3cc4c(cc3[C@@H](O[C@@H]3O[C@@H]5CO[C@@H](C)O[C@H]5[C@H](O)[C@H]3O)[C@H]3COC(=O)[C@H]23)OCO4)cc(OC)c1O [etoposide]
level of cell death (SKBR3 cells): increased
level of cell death (MCF7 cells): increased
number of TUNEL+ cells (induced IRIS3 cells; [8]): only modestly increasing
number of TUNEL+ cells (HME cells; [9]): markedly increased
p-p38MAPK level ([5]; induced IRIS2, after etoposide treatment): sharply dropped
p53 phosphorylation ([5]; induced IRIS2, etoposide 5, 10 or 50 μM, 24 h): not
p-p38MAPK level ([6]; IRIS1, after etoposide treatment): increased significantly
p53 phosphorylation ([6]; IRIS1, etoposide 5, 10 or 50 μM, 24 h): triggered
